Experimental data: patent US20020173505A1, “Medicament” (priority 1999, published 2002)

Experiments:
[1] = system: human in vitro preparations (airway smooth muscle); test: spontaneous tone in human in vitro airway preparations; settings: for nature of the relaxation of spontaneous tone (transient or persistent): human in vitro preparations
Method: (§1) The examinations of the spontaneous tone were performed in accordance with the methods disclosed in the thesis “Regulation of spontaneous tone in guinea pig trachea” by S.Skogvall, Department of Physiological Sci- ences, Lund University, 1999, which is incorporated herein by reference. As evidenced by these examinations, the airways normally display a highly regular type of oscillating tone if exposed to physiological conditions, and the oscillating tone can be reversibly affected by administration of various substances- When the epithelium is removed, the preparations instead display a strong, smooth type of tone.
Similar experiments have also been performed on human in vitro preparations, from patients undergoing lobecotomy or pulmectomy due to lung cancer.
Human airways are generally considered to display only a weak contraction when exposed to S-HT. Nevertheless, examinations on spontaneous tone on human in vitro preparations have shown that 5-HT indeed has a contractile component also in this tissue. However, this contraction takes a longer time to develop than in guinea pig and the contractile effect is seen as a termination of the relaxation, rather than an increase of tone from the baseline. In guinea pig trachea, the contraction reaches a maximum after approximately 10 min, and this is followed by a considerable reduction of tone. However, human preparations instead induce a maximum relaxing effect after 5-10 min, which disappears gradually during the following 30-45 min (see FIG. 1).

[2] = system: denuded airway smooth muscle preparations from the guinea-pig; test: spontaneous tone of denuded guinea-pig airway smooth muscle preparations
Description: The subject-matter of the present invention was inter alia deduced from animal experiments, where a specific behavior of the airway smooth muscle called “spontaneous tone” was examined. The spontaneous tone, which involves a spontaneous continuous contraction in the airway smooth muscle, was studied due to a suspicion that detective regulation of the spontaneous tone could be an important cause of the bronchoconstriction observed in asthmatic patients.
as §1
A contractile effect of serotonin on airway smooth muscle has been reported in e.g. SkQgvall, S., Korsgren, M-, Grampp, W., J. Appl. Phys., 86:789-798, 1999. […] The spontaneous tone returned to approximately its normal level when the preparations were again exposed to control conditions.

SMILES	nature of the relaxation of spontaneous tone (transient or persistent) ([1]; FIG. 1)	average force level of spontaneous tone ([2]; 1 μM added, denuded preparations with strong, smooth spontaneous tone)	spontaneous tone, level relative to force in control (drug-free) conditions ([2]; 10 μM added, denuded preparations)	time to maximum contraction ([2]; guinea pig trachea)	effect on spontaneous tone ([1]; 1 μM, tissue from patients undergoing lobectomy or pulmectomy)	time over which the relaxing effect gradually disappears after the maximum ([1]; human preparations, FIG. 1) [min]	time to maximum relaxing effect ([1]; human preparations, FIG. 1) [min]
NCCc1c[nH]c2ccc(C(N)=O)cc12 [5-carboxiamidotryptamine, 5-carboxamidotryptamine]	persistent and not transient						
NCCc1c[nH]c2ccc(O)cc12 [serotonin, 3-(P-aminoethyl)-5-hydroxyindole]	transient relaxation	increased significantly	about half	approximately 10 min	significant relaxation	30 to 45	5 to 10
COc1cc(N)c(Cl)cc1C(=O)NC[C@@H]1CCN2CCC[C@@H]12 [SC 53116, 4-amino-5-chloro-N-[[lS, 7aS)-hexahydro-1H-pyrrolizin-l-yl]methyll-2-methoxy-benzamide]	persistent and not transient						
